This passage reports IC50 results from patent publication US20230113037A1 (Bayer Aktiengesellschaft, priority 2019, published 2023).

Read-outs that look alike come from different tables or passages of the source.

In assay [1] the target is T1, AHR (Mus musculus, UniProt P30561).
T1 sequence (P30561 1-848 P471L/N533S/M589L): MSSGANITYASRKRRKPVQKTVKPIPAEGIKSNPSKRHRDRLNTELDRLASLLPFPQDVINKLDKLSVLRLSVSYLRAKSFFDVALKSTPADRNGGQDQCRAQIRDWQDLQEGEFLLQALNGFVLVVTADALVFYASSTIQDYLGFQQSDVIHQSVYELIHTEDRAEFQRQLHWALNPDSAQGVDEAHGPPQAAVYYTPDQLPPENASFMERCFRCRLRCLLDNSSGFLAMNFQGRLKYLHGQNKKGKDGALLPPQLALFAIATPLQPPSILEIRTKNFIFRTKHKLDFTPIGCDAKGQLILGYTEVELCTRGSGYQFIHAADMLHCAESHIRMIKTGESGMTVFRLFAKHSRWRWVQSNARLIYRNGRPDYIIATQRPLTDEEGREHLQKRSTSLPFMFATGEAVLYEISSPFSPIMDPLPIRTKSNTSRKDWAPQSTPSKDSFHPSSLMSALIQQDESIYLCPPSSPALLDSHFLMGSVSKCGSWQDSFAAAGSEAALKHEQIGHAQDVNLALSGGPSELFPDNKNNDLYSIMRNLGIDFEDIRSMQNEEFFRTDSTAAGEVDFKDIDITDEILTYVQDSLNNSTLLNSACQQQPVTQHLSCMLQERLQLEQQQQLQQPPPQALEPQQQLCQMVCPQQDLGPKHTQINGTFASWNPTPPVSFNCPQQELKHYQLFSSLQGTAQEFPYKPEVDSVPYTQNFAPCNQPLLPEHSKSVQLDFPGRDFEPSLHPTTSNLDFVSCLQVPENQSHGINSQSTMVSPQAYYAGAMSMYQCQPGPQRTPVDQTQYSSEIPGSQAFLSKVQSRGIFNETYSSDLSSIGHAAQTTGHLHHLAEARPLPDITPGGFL
Kind of assay: In vitro assay 3: antagonism in mouse cell line (AHR transactivation, firefly luciferase reporter, kynurenic acid prestimulated). Format: cell-based. An outline of the steps:
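Mouse cells stably carrying a DRE-driven, AHR-inducible firefly luciferase reporter were prestimulated with the endogenous agonist kynurenic acid before compound addition. Luciferase activity was measured by luminescence and normalized to positive and negative controls, with cells lacking kynurenic acid serving as full-inhibition control. Repeat tests are reported as mean or median.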
(A reporter such as luciferase makes a cellular process visible.)

Assay [2] concerns the target T2, AHR (Homo sapiens, UniProt P35869).
T2 construct: U87 MG glioblastoma cells (ATCC #HTB-14) endogenously expressing AHR; endogenous in cells; host or cells: U87 MG glioblastoma cells (ATCC #HTB-14)
T2 sequence (P35869 11-848): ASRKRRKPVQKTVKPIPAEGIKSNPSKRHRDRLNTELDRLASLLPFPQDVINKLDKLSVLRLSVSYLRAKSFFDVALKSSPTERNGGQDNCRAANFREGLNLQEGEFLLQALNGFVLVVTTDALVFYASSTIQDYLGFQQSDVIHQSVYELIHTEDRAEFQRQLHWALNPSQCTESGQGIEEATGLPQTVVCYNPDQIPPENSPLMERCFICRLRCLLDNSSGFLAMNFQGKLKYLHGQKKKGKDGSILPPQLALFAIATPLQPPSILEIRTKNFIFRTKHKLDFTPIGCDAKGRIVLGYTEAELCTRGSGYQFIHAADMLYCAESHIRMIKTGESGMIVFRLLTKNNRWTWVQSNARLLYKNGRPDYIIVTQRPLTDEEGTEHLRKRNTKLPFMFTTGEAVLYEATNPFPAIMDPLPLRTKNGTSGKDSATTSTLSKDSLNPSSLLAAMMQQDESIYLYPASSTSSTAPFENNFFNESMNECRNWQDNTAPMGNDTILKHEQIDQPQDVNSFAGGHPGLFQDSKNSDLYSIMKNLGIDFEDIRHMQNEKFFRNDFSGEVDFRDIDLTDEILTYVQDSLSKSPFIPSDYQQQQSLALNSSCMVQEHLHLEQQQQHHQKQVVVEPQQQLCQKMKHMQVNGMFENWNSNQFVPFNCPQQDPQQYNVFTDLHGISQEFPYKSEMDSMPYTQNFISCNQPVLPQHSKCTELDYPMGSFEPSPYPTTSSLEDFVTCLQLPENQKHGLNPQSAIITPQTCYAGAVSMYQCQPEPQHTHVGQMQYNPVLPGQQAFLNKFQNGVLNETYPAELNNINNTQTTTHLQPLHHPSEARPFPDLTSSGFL
Kind of assay: In vitro assay 1: antagonism in human cell line (AHR transactivation, firefly luciferase reporter, kynurenic acid prestimulated). Conditions: AHR Antagonism Human IC50 [M]. It is filed as cell-based. An outline of the steps:
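U87 MG glioblastoma cells with endogenous AHR, stably carrying a DRE-driven firefly luciferase reporter and constitutive Renilla reporter, prestimulated with kynurenic acid before compound addition. Firefly and Renilla read by dual luciferase; Renilla flags toxicity; normalized to controls (150 μM kynurenic acid + 5 μM staurosporine as full inhibition); repeat values averaged or median.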

[3] abbreviates: mouse Hepa 1c1c7 cells, 200 μM kynurenic acid, 20 hours, read-out: AHR Antagonism Mouse IC50.
Setting [4] is: Hepa 1c1c7 cells, 200 μM kynurenic acid, 20 hours, firefly luciferase reporter, read-out: AHR Antagonism Mouse IC50.
Where [5] appears, read: read-out: AHR Antagonism Mouse IC50, mouse Hepa 1c1c7 cells, 200 μM kynurenic acid, 20 hours.

Usually IC50 stands for the concentration at which inhibition is half-maximal. As for `O=C1NCCCC[C@H]1Nc1nc2ccccc2c2nc(-c3ccncc3F)nn12` [Example 369, (3R)-3-{[2-(3-fluoropyridin-4-yl)[1,2,4]triazolo[1,5-c]quinazolin-5-yl]amino}azepan-2-one], the IC50 amounted to 9.97 nM at AHR [1] (setting [3]) and 1.64e-08 M against AHR [2].

With `COc1ccc(-c2nc3c4cccc(F)c4nc(N[C@@H]4CNCCNC4=O)n3n2)cc1` [Example 426, (6R)-6-{[7-fluoro-2-(4-methoxyphenyl)[1,2,4]triazolo[1,5-c]quinazolin-5-yl]amino}-1,4-diazepan-5-one], the concentration for half-maximal inhibition (IC50) on AHR [1] (setting [3]) was 14.3 nM; on AHR [2], 1.84e-08 M.

As to `N#Cc1ccc(-c2nc3c4cccc(Br)c4nc(N[C@@H]4CCNC4=O)n3n2)cc1` [Example 561, 4-(7-bromo-5-{[(3R)-2-oxopyrrolidin-3-yl]amino}[1,2,4]triazolo[1,5-c]quinazolin-2-yl)benzonitrile], the IC50 on AHR [1] (setting [3]) was determined as 7.55 nM; at AHR [2], 3.96e-09 M.

On to `Cn1cc(-c2nc3c4c(Cl)cccc4nc(N[C@@H]4CNCCNC4=O)n3n2)cn1` [Example 417], for which the figures for the half-maximal inhibitory concentration (IC50) on AHR [1] (setting [3]) and on AHR [2] were 7300 nM and 1.11e-06 M, respectively.

Turning to `COc1cccc(-c2nc3c4cc(F)ccc4nc(NC4CCNC4=O)n3n2)c1` (stereo not shown) [Example 162, 3-{[9-fluoro-2-(3-methoxyphenyl)[1,2,4]triazolo[1,5-c]quinazolin-5-yl]amino}pyrrolidin-2-one], the figures for the IC50 at AHR [1] (setting [3]) and against AHR [2] were 25.5 nM and 2.23e-08 M, respectively.

Turning to `COC(=O)N1CCN(C(=O)[C@@H](C)Nc2nc3c(Br)cccc3c3nc(-c4cnn(C)c4)nn23)CC1` [Example 893, methyl 4-{N-[7-bromo-2-(1-methyl-1H-pyrazol-4-yl)[1,2,4]triazolo[1,5-c]quinazolin-5-yl]-D-alanyl}piperazine-1-carboxylate], the IC50 at AHR [1] (setting [4]) was found to be 18.2 nM; against AHR [2] (firefly luciferase reporter), 2.65e-08 M.

Regarding `COc1ccc(-c2nc3c4cccc(Br)c4nc(N[C@H](C)C(=O)NCCN4CCNCC4)n3n2)cc1` [Example 992, N^2-[7-bromo-2-(4-methoxyphenyl)[1,2,4]triazolo[1,5-c]quinazolin-5-yl]-N-[2-(piperazin-1-yl)ethyl]-D-alaninamide-hydrogen chloride (1/2)], the concentration for half-maximal inhibition (IC50) on AHR [1] (setting [4]) turned out to be 7.74 nM; on AHR [2] (firefly luciferase reporter), 3.94e-09 M.

In the case of `CS(=O)(=O)c1ccc(-c2nc3c4ccccc4nc(N[C@@H]4CCCNC4=O)n3n2)cc1` [Example 374, (3R)-3-({2-[4-(methanesulfonyl)phenyl][1,2,4]triazolo[1,5-c]quinazolin-5-yl}amino)piperidin-2-one], the IC50 on AHR [1] (setting [3]) was 211 nM; at AHR [2], 4.49e-07 M.

With `Cn1cc(-c2nc3c4cc(Br)cc(Br)c4nc(N[C@@H]4CCCCNC4=O)n3n2)cn1` [Example 594, (3R)-3-{[7,9-dibromo-2-(1-methyl-1H-pyrazol-4-yl)[1,2,4]triazolo[1,5-c]quinazolin-5-yl]amino}azepan-2-one], the results for the half-maximal inhibitory concentration (IC50) on AHR [1] (setting [3]) and on AHR [2] were more than 20000 nM and 5.01e-07 M, respectively.

Take `COc1cccc(-c2nc3c4ccccc4nc(N[C@@H](CCCCNC(=O)OC(C)(C)C)C(N)=O)n3n2)c1` [Example 101, tert-butyl[(5S)-6-amino-5-{[2-(3-methoxyphenyl)[1,2,4]triazolo[1,5-c]quinazolin-5-yl]amino}-6-oxohexyl]carbamate]: the values for the half-inhibitory concentration (IC50) on AHR [1] (setting [3]) and at AHR [2] were 145 nM and 3.48e-06 M, respectively.

`Cn1cc(-c2nc3c4cccc(C5CC5)c4nc(N[C@@H]4CCCCNC4=O)n3n2)cn1` [Example 207, (3R)-3-{[7-cyclopropyl-2-(1-methyl-1H-pyrazol-4-yl)[1,2,4]triazolo[1,5-c]quinazolin-5-yl]amino}azepan-2-one]: the values for the IC50 on AHR [1] (setting [3]) and at AHR [2] were 242 nM and 1.77e-08 M, respectively.

Regarding `COc1ccccc1-c1nc2c3ccccc3nc(N[C@H]3CCCCNC3=O)n2n1` [Example 60, (3S)-3-{[2-(2-methoxyphenyl)[1,2,4]triazolo[1,5-c]quinazolin-5-yl]amino}azepan-2-one], the results for the 50% inhibitory concentration (IC50) on AHR [1] (setting [3]) and against AHR [2] were 131 nM and more than 2e-05 M, respectively.

For `O=C1NCCCC[C@H]1Nc1nc2c(F)cccc2c2nc(-c3cccc(F)c3)nn12` [Example 137, (3R)-3-{[7-fluoro-2-(3-fluorophenyl)[1,2,4]triazolo[1,5-c]quinazolin-5-yl]amino}azepan-2-one], the IC50 at AHR [1] (setting [5]) stood at 0.823 nM; against AHR [2], 2.16e-09 M.

Take `C[C@@H]1COCCN1C(=O)[C@@H](C)Nc1nc2c(Br)cccc2c2nc(-c3cnn(C)c3)nn12` [Example 912, (2R)-2-{[7-bromo-2-(1-methyl-1H-pyrazol-4-yl)[1,2,4]triazolo[1,5-c]quinazolin-5-yl]amino}-1-[(3R)-3-methylmorpholin-4-yl]propan-1-one]: the IC50 on AHR [1] (setting [4]) is 13.7 nM; at AHR [2] (firefly luciferase reporter) it was 2.16e-08 M.

For `O=C1NCCCC[C@H]1Nc1nc2ccccc2c2nc(-c3cc(C(F)(F)F)cc(C(F)(F)F)c3)nn12` [Example 359, (3R)-3-({2-[3,5-Bis(trifluoromethyl)phenyl][1,2,4]triazolo[1,5-c]quinazolin-5-yl}amino)azepan-2-one], the figures for the half-inhibitory concentration (IC50) on AHR [1] (setting [3]) and against AHR [2] were 93.4 nM and more than 2e-05 M, respectively.

As for `N#Cc1cccc2c1nc(N[C@@H]1CCCCNC1=O)n1nc(-c3cn[nH]c3)nc21` [Example 765, 5-{[(3R)-2-oxoazepan-3-yl]amino}-2-(1H-pyrazol-4-yl)[1,2,4]triazolo[1,5-c]quinazoline-7-carbonitrile], the 50% inhibitory concentration (IC50) at AHR [1] (setting [5]) was determined as 5850 nM; against AHR [2], 7.79e-07 M.

Turning to `Cn1cc(-c2nc3c4cccc(C(F)(F)F)c4nc(NC4C(=O)NCC4(C)C)n3n2)cn1` (single isomer, unassigned; (-)) [Example 729, (−)-4,4-dimethyl-3-{[2-(1-methyl-1H-pyrazol-4-yl)-7-(trifluoromethyl)[1,2,4]triazolo[1,5-c]quinazolin-5-yl]amino}pyrrolidin-2-one], the IC50 on AHR [1] (setting [3]) is 161 nM; against AHR [2] it was 3.6e-06 M.

For `COC(=O)c1cccc2c1nc(N[C@@H]1CCCCNC1=O)n1nc(-c3ccc(OC)cc3)nc21` [Example 250, Methyl 2-(4-methoxyphenyl)-5-{[(3R)-2-oxoazepan-3-yl]amino}[1,2,4]triazolo[1,5-c]quinazoline-7-carboxylate], the IC50 at AHR [1] (setting [3]) came out at 135 nM; against AHR [2], 1.43e-08 M.

Take `CC[C@@H](Nc1nc2ccccc2c2nc(-c3cscc3C)nn12)C(N)=O` [Example 542]: the half-inhibitory concentration (IC50) stood at 0.565 nM on AHR [1] (setting [3]) and 3.55e-09 M against AHR [2].

In the case of `O=C1NCCCC[C@@H]1Nc1nc2c(Br)cccc2c2nc(-c3ccc(Cl)cc3OC(F)F)nn12` [Example 576, (3S)-3-({7-bromo-2-[4-chloro-2-(difluoromethoxy)phenyl][1,2,4]triazolo[1,5-c]quinazolin-5-yl}amino)azepan-2-one], the IC50 on AHR [1] (setting [3]) turned out to be 2.96 nM; against AHR [2], 1.77e-08 M.
